In patent publication US4740233A, “Substituted 1,2,4-triazolo[1,5-a]-pyrimidine-2-sulfonamides and compositions and methods of controlling undesired vegetation and suppressing the nitrification of ammonium nitrogen in soil” (The Dow Chemical Company, priority 1986, dated 1988):

Key:
Assay in all cases: Preemergent control of plant species
sugar beet = type: in vivo, Beta saccharifera; conditions: Beta vulgaris, pre-emergence, 336 h; 0.25 lb/acre; read-out: percent preemergent control
Procedure: (§1) The seeds of various species of plants were planted in beds of good agricultural soil in a greenhouse. A number of compositions of the present invention, generally in the nature of an aqueous emulsion, were applied at rates listed in the table so as to deposit a predetermined amount of active ingredients uniformly throughout the surface of the bed. Another seed bed was treated only with water to serve as a control. After treatment the seed beds were maintained for two weeks under greenhouse conditions conducive for good plant growth and watered as necessary. Control refers to the reduction in growth compared to the observed results of the same untreated species.

corn = type: in vivo, Zea mays; conditions: Zea mays, pre-emergence, 336 h; 0.25 lb/acre; read-out: percent preemergent control
Procedure: as §1

cotton = type: in vivo, Gossypium spp.; conditions: Gossypium hirsutum, pre-emergence, 336 h; 0.25 lb/acre; read-out: percent preemergent control
Procedure: as §1

soybean = type: in vivo, Glycine max.; conditions: Glycine max, pre-emergence, 336 h; 0.25 lb/acre; read-out: percent preemergent control
Procedure: as §1

sorghum = type: in vivo, Sorghum vulgare; conditions: Sorghum, pre-emergence, 336 h; 0.25 lb/acre; read-out: percent preemergent control
Procedure: as §1

velvetleaf = type: in vivo, Abutilon theophrasti; conditions: Abutilon theophrasti, pre-emergence, 336 h; 0.25 lb/acre; read-out: percent preemergent control
Procedure: as §1

wheat = type: in vivo, Triticum aestivum; conditions: Triticum aestivum, pre-emergence, 336 h; 0.25 lb/acre; read-out: percent preemergent control
Procedure: as §1

rice = type: in vivo, Oryza sativa; conditions: Oryza sativa, pre-emergence, 336 h; 0.25 lb/acre; read-out: percent preemergent control
Procedure: as §1

jimsonweed = type: in vivo, Datura stramonium; conditions: Datura stramonium, pre-emergence, 336 h; 0.25 lb/acre; read-out: percent preemergent control
Procedure: as §1

yellow foxtail = type: in vivo, Setaria lutescens; conditions: Setaria, pre-emergence, 336 h; 0.25 lb/acre; read-out: percent preemergent control
Procedure: as §1

johnson grass = type: in vivo, Sorghum halepense; conditions: Sorghum halepense, pre-emergence, 336 h; 0.25 lb/acre; read-out: percent preemergent control
Procedure: as §1

annual morning glory = type: in vivo, Ipomoea spp.; conditions: Ipomoea, pre-emergence, 336 h; 0.25 lb/acre; read-out: percent preemergent control
Procedure: as §1

yellow nutsedge = type: in vivo, Cyperus esculentus; conditions: Cyperus, pre-emergence, 336 h; 0.25 lb/acre; read-out: percent preemergent control
Procedure: as §1

barnyardgrass = type: in vivo, Echinochloa crusgalli; conditions: Echinochloa crus-galli, pre-emergence, 336 h; 0.25 lb/acre; read-out: percent preemergent control
Procedure: as §1

rape = type: in vivo, Brassica napus; conditions: Brassica napus, pre-emergence, 336 h; 0.25 lb/acre; read-out: percent preemergent control
Procedure: as §1

Row | Compound | plant injury at 280.212 g/ha (sugar beet) [%] | plant injury at 280.212 g/ha (corn) [%] | plant injury at 280.212 g/ha (cotton) [%] | plant injury at 280.212 g/ha (soybean) [%] | plant injury at 280.212 g/ha (sorghum) [%] | pest or weed control at 280.212 g/ha (velvetleaf) [%] | plant injury at 280.212 g/ha (wheat) [%] | plant injury at 280.212 g/ha (rice) [%] | pest or weed control at 280.212 g/ha (jimsonweed) [%] | pest or weed control at 280.212 g/ha (yellow foxtail) [%] | pest or weed control at 280.212 g/ha (johnson grass) [%] | pest or weed control at 280.212 g/ha (annual morning glory) [%] | pest or weed control at 280.212 g/ha (yellow nutsedge) [%] | pest or weed control at 280.212 g/ha (barnyardgrass) [%] | plant injury at 280.212 g/ha (rape) [%]
1 | CSc1nc2nc(S(=O)(=O)Nc3c(Cl)cccc3Cl)nn2cc1C [Compound 235] | 50 | 50 | 50 | 0 | 50 | 20 | 50 | 10 | 50 | 20 | 0 | 90 | 0 | – | –
2 | Cc1cc(C(F)(F)F)n2nc(S(=O)(=O)Nc3c(Cl)ccc(C)c3Cl)nc2n1 [Compound 229] | 100 | 40 | 100 | 30 | 90 | 90 | 0 | 10 | 90 | 0 | 0 | 100 | 100 | 0 | 100
3 | CCCCCCCCCC(=O)N(c1c(F)cccc1F)S(=O)(=O)c1nc2nc(C)ccn2n1 [Compound 287] | 100 | 60 | 100 | 30 | 100 | 100 | 70 | 100 | 100 | 100 | 100 | 100 | 100 | 100 | 100
4 | Cc1ccc(Cl)c(NS(=O)(=O)c2nc3ncccn3n2)c1Cl [Compound 139] | 100 | 70 | 100 | 50 | 100 | 100 | 80 | 90 | 100 | 100 | 100 | 90 | 100 | 80 | 100
5 | COc1ccc(F)c(NS(=O)(=O)c2nc3nc(C)ccn3n2)c1F [Compound 172] | 100 | 80 | 100 | 90 | 100 | 100 | 90 | 100 | 100 | 100 | 90 | 90 | 100 | 100 | –
6 | Cc1ccn2nc(S(=O)(=O)N(C(=O)C(C)(C)C)c3c(F)cccc3F)nc2n1 [Compound 280] | 100 | 50 | 80 | 10 | 100 | 100 | 60 | 50 | 100 | 100 | 90 | 90 | 100 | 100 | 100
7 | COc1cccc(C(F)(F)F)c1NS(=O)(=O)c1nc2ncccn2n1 [Compound 141] | 100 | 100 | 100 | 100 | 100 | 100 | 95 | 100 | 100 | 100 | 100 | 100 | 75 | 95 | 100
8 | Cc1cn2nc(S(=O)(=O)Nc3c(Cl)cccc3Cl)nc2nc1N(C)C [Compound 237] | 50 | 20 | 50 | 40 | 20 | 0 | 100 | 20 | 10 | 30 | 10 | 20 | 30 | 10 | –
9 | O=S(=O)(Nc1c(F)cccc1F)c1nc2ncccn2n1 [Compound 138] | 90 | 30 | 100 | 50 | 50 | 90 | 10 | 50 | 20 | 90 | 90 | 20 | 80 | 0 | 100
10 | Cc1cc(C(F)(F)F)n2nc(S(=O)(=O)Nc3c(F)cccc3F)nc2n1 [Compound 228] | 100 | 50 | 90 | 20 | 100 | 90 | 50 | – | 100 | 50 | 90 | 70 | 50 | 90 | 80
11 | COc1cccc(C(F)(F)F)c1NS(=O)(=O)c1nc2nccc(C)n2n1 [Compound 191] | 100 | 95 | 100 | 100 | 100 | 100 | 100 | – | 100 | 100 | 100 | 100 | 100 | 100 | 100
12 | Cc1ccc(F)c(NS(=O)(=O)c2nc3nccc(C)n3n2)c1F [Compound 190] | 100 | 10 | 90 | 90 | 95 | 50 | 20 | 20 | 90 | 70 | 30 | 50 | 100 | 30 | –
13 | O=S(=O)(Nc1c(Cl)cccc1Cl)c1nc2ncccn2n1 [Compound 137] | 100 | 0 | 80 | 0 | 30 | 80 | 30 | 50 | 10 | 20 | 20 | 70 | 100 | 20 | –
